# Results: patent publication US11065304B2, “Peptide pharmaceuticals for insulin resistance” (MEDERIS DIABETES, LLC, priority 2012, dated 2021)
# Tests used:
# GLP-1 R [1] = biological target: T1, GLP-1 R (Homo sapiens, UniProt P43220); test: DiscoveRx LeadHunter cellular assay, cAMP stimulation, GLP-1 receptor; type: cell-based
# Procedure: (§1) § means superagonist A further series of cellular assays were carried out using standard cellular assays (DiscoveRx, LeadHunter assays) using readout of cAMP stimulation or arrestin activation. Compounds were weighed precisely in an amount of approximately 1 mg and shipped to DiscoveRx for dilution and assay.
# GLP-1 R [2] = biological target: T1, GLP-1 R; test: DiscoveRx LeadHunter cellular assay, arrestin activation, GLP-1 receptor; type: cell-based
# Procedure: as §1
# db/db mice = test: In vivo assay in db/db mice (blood glucose, body weight, food consumption); conditions: for db/db mice - Mean Blood Glucose, 10 hr: 10 hr after first dose; for db/db mice - Mean Blood Glucose, 24 hr: 24 hr after first dose; for db/db mice - Mean Blood Glucose, 48 hr: 48 hr after first dose
# Procedure: The 60 female db/db B6BKS (D) Leprdb/J (strain 000697) mice for this study were approximately 8 to 9 weeks old at arrival (Jackson Laboratory, Bar Harbor, Me.). […] One group of 8 female mice served as the vehicle control and received the vehicle, 0.2% BSA in saline, pH 7.4. One additional group of 8 female mice received the positive control article, liraglutide, at a dose level of 50 nmoles/kg. The test articles, vehicle, and positive control article were administered on Day 1, at approximately 0, 7, and 24 hours during the study via subcutaneous injection at a dose volume of 6 mL/kg.
# Clinical observations were conducted at receipt, prior to randomization, and daily from Days 1 to 5. Body weights were measured and recorded at receipt, prior to randomization, and daily from Days 1 to 5. Food consumption was measured and recorded daily from Days 1 to 5. Blood samples for glucose analysis were collected pretest (Day −3) and at 0, 1, 2, 4, 8, 10, 24, 48, 72, and 96 hours following the first dose on Day 1. At study termination all animals were euthanized and the carcasses were discarded without further evaluation.
# glucagon R = biological target: T2, glucagon R (Homo sapiens, UniProt P47871); test: DiscoveRx LeadHunter cellular assay, cAMP stimulation, glucagon receptor; type: cell-based
# T2 construct: host or cells: CHO cells
# T2 sequence (P47871 26-477): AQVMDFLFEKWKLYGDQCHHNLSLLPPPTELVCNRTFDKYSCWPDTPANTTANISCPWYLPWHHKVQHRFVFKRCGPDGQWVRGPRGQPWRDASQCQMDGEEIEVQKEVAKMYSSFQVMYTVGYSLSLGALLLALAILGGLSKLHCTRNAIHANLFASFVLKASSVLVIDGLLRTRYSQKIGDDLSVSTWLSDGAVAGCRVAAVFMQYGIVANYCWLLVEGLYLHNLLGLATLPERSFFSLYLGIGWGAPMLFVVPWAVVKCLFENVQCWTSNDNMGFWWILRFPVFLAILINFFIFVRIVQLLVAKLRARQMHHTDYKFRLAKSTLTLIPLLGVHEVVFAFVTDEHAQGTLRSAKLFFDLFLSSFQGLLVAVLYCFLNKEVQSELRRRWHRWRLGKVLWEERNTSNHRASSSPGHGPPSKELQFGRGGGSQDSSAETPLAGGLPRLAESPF
# Procedure: as §1
# T1 sequence (P43220 24-463): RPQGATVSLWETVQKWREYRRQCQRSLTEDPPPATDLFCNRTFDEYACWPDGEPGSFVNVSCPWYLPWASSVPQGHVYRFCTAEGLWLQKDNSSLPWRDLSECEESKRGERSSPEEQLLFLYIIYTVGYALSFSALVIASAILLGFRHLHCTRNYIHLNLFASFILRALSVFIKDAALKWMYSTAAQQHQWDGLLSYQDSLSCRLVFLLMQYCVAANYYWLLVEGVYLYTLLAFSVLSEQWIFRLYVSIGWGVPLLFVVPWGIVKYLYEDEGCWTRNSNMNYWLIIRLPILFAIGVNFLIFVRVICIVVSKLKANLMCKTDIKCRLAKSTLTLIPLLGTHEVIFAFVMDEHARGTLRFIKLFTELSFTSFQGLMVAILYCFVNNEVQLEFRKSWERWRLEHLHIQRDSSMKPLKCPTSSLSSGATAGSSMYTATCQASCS
Structure (SMILES),EC50 (GLP-1 R [1]),EC50 (GLP-1 R [2]),"db/db mice - Mean Blood Glucose, 0 hr (db/db mice; 300 nmole/kg s.c.)","db/db mice - Mean Blood Glucose, 10 hr (db/db mice; 300 nmole/kg s.c.)","db/db mice - Mean Blood Glucose, 24 hr (db/db mice; 300 nmole/kg s.c.)","db/db mice - Mean Blood Glucose, 48 hr (db/db mice; 300 nmole/kg s.c.)","glucose levels versus vehicle (db/db mice; db/db mice, 10 and 24 hours, high dose (300 nmoles/kg))","food consumption versus Liraglutide (db/db mice; db/db mice, Day 1, high dose (300 nmoles/kg))","body weight changes against vehicle (db/db mice; db/db mice, Days 2 and 3, liraglutide 50 nmoles/kg, test articles high dose (300 nmoles/kg))",EC50 (glucagon R),"db/db mice - Mean Blood Glucose, 0 hr (db/db mice; 250 nmole/kg s.c.)","db/db mice - Mean Blood Glucose, 10 hr (db/db mice; 250 nmole/kg s.c.)","db/db mice - Mean Blood Glucose, 24 hr (db/db mice; 250 nmole/kg s.c.)","db/db mice - Mean Blood Glucose, 48 hr (db/db mice; 250 nmole/kg s.c.)"
"CCCCCCCCCCCCCCO[C@@H]1O[C@H](C(=O)NCCCC[C@H](NC(=O)[C@@H](NC(=O)[C@H](Cc2ccccc2)NC(=O)[C@H](CCC(=O)O)NC(=O)[C@@H]2CCCCNC(=O)CC[C@H](NC(=O)[C@H](CC(=O)O)NC(=O)[C@H](CC(C)C)NC(=O)[C@H](Cc3ccc(O)cc3)NC(=O)[C@H](CCCCN)NC(=O)[C@H](CO)NC(=O)[C@H](Cc3ccc(O)cc3)NC(=O)[C@H](CC(=O)O)NC(=O)[C@H](CO)NC(=O)[C@@H](NC(=O)[C@H](Cc3ccccc3)NC(=O)[C@@H](NC(=O)CNC(=O)[C@H](CCC(N)=O)NC(=O)C(C)(C)NC(=O)[C@@H](N)Cc3c[nH]cn3)[C@@H](C)O)[C@@H](C)O)C(=O)N[C@@H](CCC(N)=O)C(=O)N[C@@H](C)C(=O)N[C@@H](C)C(=O)N2)[C@@H](C)CC)C(=O)N[C@@H](Cc2c[nH]c3ccccc23)C(=O)N[C@@H](CC(C)C)C(=O)N[C@@H](CC(C)C)C(=O)N[C@@H](CCC(N)=O)C(=O)N[C@H](C(N)=O)[C@@H](C)O)[C@@H](O)[C@H](O)[C@H]1O [EU-A994, His1-Aib2-Gln3-Gly4-Thr5-Phe6-Thr7-Ser8-Asp9-Tyr10-Ser11-Lys12-Tyr13-Leu14-Asp15-Glu*16-Gln17 Ala18-Ala19-Lys*20-Glu21-Phe22-Ile23-Lys(N-omega(1-tetradecylbeta-D-glucuronyl))24-Trp25-Leu26-Leu27-Gln28-Thr29-NH2]",0.05 nM,10.2 nM,554 mg/dL,242 mg/dL,209 mg/dL,385 mg/dL,significantly different from vehicle,significantly different from Liraglutide,Significant body weight changes,< 0.05 nM,,,,
"CCCCCCCCCCCCO[C@@H]1O[C@H](C(=O)NCCCC[C@H](NC(=O)[C@@H](NC(=O)[C@H](Cc2ccccc2)NC(=O)[C@H](CCC(=O)O)NC(=O)[C@@H]2CCCCNC(=O)CC[C@H](NC(=O)[C@H](CC(=O)O)NC(=O)[C@H](CC(C)C)NC(=O)[C@H](Cc3ccc(O)cc3)NC(=O)[C@H](CCCCN)NC(=O)[C@H](CO)NC(=O)[C@H](Cc3ccc(O)cc3)NC(=O)[C@H](CC(=O)O)NC(=O)[C@H](CO)NC(=O)[C@@H](NC(=O)[C@H](Cc3ccccc3)NC(=O)[C@@H](NC(=O)CNC(=O)[C@H](CCC(N)=O)NC(=O)C(C)(C)NC(=O)[C@@H](N)Cc3c[nH]cn3)[C@@H](C)O)[C@@H](C)O)C(=O)N[C@@H](CCC(N)=O)C(=O)N[C@@H](C)C(=O)N[C@@H](C)C(=O)N2)[C@@H](C)CC)C(=O)N[C@@H](Cc2c[nH]c3ccccc23)C(=O)N[C@@H](CC(C)C)C(=O)N[C@@H](CC(C)C)C(=O)N[C@@H](CCC(N)=O)C(=O)N[C@H](C(N)=O)[C@@H](C)O)[C@@H](O)[C@H](O)[C@H]1O [EU-A993, His1-Aib2-Gln3-Gly4-Thr5-Phe6-Thr7-Ser8-Asp9-Tyr10-Ser11-Lys12-Tyr13-Leu14-Asp15-Glu*16-Gln17 Ala18-Ala19-Lys*20-Glu21-Phe22-Ile23-Lys(N-omega(1-dodecylbeta-D-glucuronyl))24-Trp25-Leu26-Leu27-Gln28-Thr29-NH2]",< 0.05 nM,12.3 nM,,,,,,,,< 0.05 nM,503 mg/dL,305 mg/dL,324 mg/dL,426 mg/dL
